Columns and labels:
[1] = in vivo, cited from earlier work
[2] = system: M. abscessus and M. chelonae infections; conditions: cited from earlier work
[3] = in vivo; cited from earlier work
[4] = rat, in vivo; cited from earlier work
M. abscessus [5] = experiment: Intrapulmonary aerosol M. abscessus infection in GM-CSF KO mice, lung CFU determination; format: in vivo, Mycobacterium abscessus; conditions: for Log10 CFU count After 4 weeks: GM-CSF KO mice, lungs, 5 days a week for 4 weeks, at start 4.80, untreated 3.93
[6] = cited from earlier work
M. abscessus [7] = conditions: cited from earlier work

In the case of CN(C)c1cc(NC(=O)CNC(C)(C)C)c(O)c2c1C[C@H]1C[C@H]3[C@H](N(C)C)C(O)=C(C(N)=O)C(=O)[C@@]3(O)C(O)=C1C2=O [tigecycline], the half-life ([1]; human) is given as 36 h, the “excreted unchanged in the urine” value [1] is given as “not more than 15%” and the volume of distribution [1] is given as over 10 L/kg. For the same compound, the “cases with adverse events reported” value ([2]; human, in vivo, iv) was “about 90%”, the “patients with serious adverse events” value ([2]; human, in vivo, iv) was 29 out of 52 and the “patients who stopped tigecycline therapy early because of adverse events” value ([2]; human, in vivo) was 27%. For the same compound, the patients with improvement ([2]; intravenous 100 mg then 50 mg every 12 h, part of a multidrug regimen) was “about 60%”, the “dose at which gastrointestinal adverse events were dose limiting” value [3] was 300 mg and the “nausea, share of tigecycline recipients” value [3] was 48.5%. The “vomiting, share of tigecycline recipients” value [3] was 29.4%, the penetration into tissues [4] was “good penetration into tissues” and the “bacterial colonies after culturing lung tissue” value (M. abscessus [5]; 2.5 mg cohorts, 9 out of 10 mice, 4 weeks) was “no bacterial colonies were visible”. For the same compound, the “log 10 CFU count of the mouse with incomplete response” value (M. abscessus [5]; 2.5 mg cohorts, one mouse with abscess formation, 4 weeks) was 0.5 log 10 CFU, the “Log10 CFU count After 4 weeks” value (M. abscessus [5]; inhaled 0.25 mg/dose) was 3.28 Log10 CFU and the “Log10 CFU count After 4 weeks” value (M. abscessus [5]; inhaled 1.25 mg/dose) was 0.695 Log10 CFU. The “Log10 CFU count After 4 weeks” value (M. abscessus [5]; inhaled 2.5 mg/dose) was 0.50 Log10 CFU, the Protein binding [6] was “approximately 68%” and the “log kill of M. abscessus” value (M. abscessus [7]; at 200 mg/day, short-term inhibitory effect) was 1 log kill. For the same compound, the maximum microbial kill (M. abscessus [7]; at higher doses) was 1.37 log10 CFU/mL.

From patent US20220233555A1, “Improved administration of glycylcyclines by inhalation” (Stichting Radboud universitair medisch centrum, priority 2019, published 2022)
